This is an account of results in patent US11332459B2 (TEIJIN PHARMA LIMITED, priority 2017, dated 2022).

SMILES strings stand for the structures. Counter-ions that a name gives are not always drawn.

In this assay the target is T1, human TRPC6 (Homo sapiens, UniProt Q9Y210).
T1 construct: expressed in transfected cells
T1 sequence (Q9Y210 1-931): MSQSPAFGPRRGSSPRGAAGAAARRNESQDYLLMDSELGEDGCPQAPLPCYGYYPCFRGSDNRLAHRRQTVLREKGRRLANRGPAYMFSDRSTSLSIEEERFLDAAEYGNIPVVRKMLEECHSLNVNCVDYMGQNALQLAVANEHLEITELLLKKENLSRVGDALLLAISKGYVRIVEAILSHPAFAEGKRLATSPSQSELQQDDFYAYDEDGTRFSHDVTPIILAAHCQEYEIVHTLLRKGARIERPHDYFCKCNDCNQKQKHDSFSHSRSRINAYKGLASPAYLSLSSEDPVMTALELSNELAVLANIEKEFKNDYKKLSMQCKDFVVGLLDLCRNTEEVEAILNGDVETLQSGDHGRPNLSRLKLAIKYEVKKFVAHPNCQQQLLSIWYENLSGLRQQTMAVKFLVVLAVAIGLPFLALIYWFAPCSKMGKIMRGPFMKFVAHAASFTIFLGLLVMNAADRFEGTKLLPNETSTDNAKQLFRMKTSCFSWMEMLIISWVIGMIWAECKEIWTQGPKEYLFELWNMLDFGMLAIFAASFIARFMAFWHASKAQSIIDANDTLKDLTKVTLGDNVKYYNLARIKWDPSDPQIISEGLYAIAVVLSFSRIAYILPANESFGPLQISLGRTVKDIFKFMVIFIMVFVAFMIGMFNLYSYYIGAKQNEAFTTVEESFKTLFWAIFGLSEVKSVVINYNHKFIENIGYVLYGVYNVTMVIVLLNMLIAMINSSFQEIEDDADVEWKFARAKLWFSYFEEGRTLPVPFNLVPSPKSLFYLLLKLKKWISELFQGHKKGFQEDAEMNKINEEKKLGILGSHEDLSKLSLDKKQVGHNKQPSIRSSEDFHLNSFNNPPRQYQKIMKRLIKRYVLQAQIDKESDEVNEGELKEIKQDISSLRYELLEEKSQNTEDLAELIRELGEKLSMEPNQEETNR
The experiment in a line: TRPC6 calcium flux assay (FLIPR, OAG-stimulated calcium influx). In kind it is cell-based. The note with it: HEK293 cells stably transfected with human TRPC6, read-out: hTRPC6 Potency. In short, it runs like this:
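IC50 derived by plotting background-corrected peak fluorescence (180 s window, normalized to OAG-triggered signal vs buffer) against dose. Stable human TRPC6 HEK293 line was dye-loaded, exposed to compound 25 min, then challenged with 50 uM final OAG in 2 mM Ca2+ HEPES buffer pH 7.2, 0.5% DMSO.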
In general terms: A change in cytosolic calcium serves as a functional read-out for many receptors and channels.
Turning to `N#Cc1ccc(Cn2c(N3CCC[C@@H](N)C3)nc3ccccc32)c(Cl)c1` [Example 394, (R)-4-((2-(3-aminopiperidin-1-yl)-1H-benzo[d]imidazol-1-yl)methyl)-3-chlorobenzonitrile], the IC50 worked out at 732 nM. For `N[C@@H]1CCCN(c2nc3ccccc3n2Cc2ccc(Cl)cc2Cl)C1` [Example 395, (R)-1-(1-(2,4-dichlorobenzyl)-1H-benzo[d]imidazol-2-yl)piperidin-3-amine], the IC50 is 1120 nM. The figure for `COc1cc(C#N)ccc1Cn1c(N2CCC[C@@H](N)C2)nc2ccccc21` [Example 396, (R)-4-((2-(3-aminopiperidin-1-yl)-1H-benzo[d]imidazol-1-yl)methyl)-3-methoxybenzonitrile] is 18200 nM. The figure for `N#Cc1cc(Cl)ccc1Cn1c(N2CCC[C@@H](N)C2)nc2ccccc21` [Example 397, (R)-2-((2-(3-aminopiperidin-1-yl)-1H-benzo[d]imidazol-1-yl)methyl)-5-chlorobenzonitrile] is 1580 nM; for `C[C@H](c1ccc(C#N)cc1)n1c(N2CCC[C@@H](N)C2)nc2ccccc21` [Example 398, 4-((R)-1-(2-((R)-3-aminopiperidin-1-yl)-1H-benzo[d]imidazol-1-yl)ethyl)benzonitrile] it is 87.4 nM. Regarding `N#Cc1cccc(Cn2c(N3CCC[C@@H](N)C3)nc3ccccc32)c1` [Example 400, (R)-3-((2-(3-aminopiperidin-1-yl)-1H-benzo[d]imidazol-1-yl)methyl)benzonitrile], the IC50 worked out at 16500 nM.

As to `N#Cc1ccc(Cn2c(N3CC[C@H](F)[C@H](N)C3)nc3ccc(Cl)cc32)cc1` [Example 401, 4-((2-((3R,4S)-3-amino-4-fluoropiperidin-1-yl)-6-chloro-1H-benzo[d]imidazol-1-yl)methyl)benzonitrile hydrochloride], the IC50 turned out to be 0.456 nM. Take `COc1ccc2nc(N3CCC[C@H](N)C3)n(Cc3ccc(C#N)cc3)c2c1` [Example 402, (S)-4-((2-(3-aminopiperidin-1-yl)-6-methoxy-1H-benzo[d]imidazol-1-yl)methyl)benzonitrile hydrochloride]: the IC50 amounted to 1.33 nM. Next, `COc1ccc2nc(N3CC[C@H](F)[C@H](N)C3)n(Cc3ccc(C#N)cc3)c2c1` [Example 403, 4-((2-((3R,4S)-3-amino-4-fluoropiperidin-1-yl)-6-methoxy-1H-benzo[d]imidazol-1-yl)methyl)benzonitrile]: 0.395 nM. For `COc1ccc2nc(N3CCC[C@H](N)C3)n(Cc3ccc(C#N)cc3)c2n1` [Example 404, (S)-4-((2-(3-aminopiperidin-1-yl)-5-methoxy-3H-imidazo[4,5-b]pyridin-3-yl)methyl)benzonitrile hydrochloride], the IC50 was 1.67 nM.

For `N#Cc1ccc(Cn2c(N3CCC(F)(F)[C@H](N)C3)nc3ccc(Cl)cc32)cc1` [Example 405], the IC50 was found to be 0.708 nM.

As for `COc1ccc2nc(N3CCC(F)(F)[C@H](N)C3)n(Cc3ccc(C#N)cc3)c2c1` [Example 406, (R)-4-((2-(3-amino-4,4-difluoropiperidin-1-yl)-6-methoxy-1H-benzo[d]imidazol-1-yl)methyl)benzonitrile], the IC50 was determined as 0.447 nM. Consider `N#Cc1ccc(Cn2c(N3CCC(F)(F)[C@H](N)C3)nc3c(Cl)cccc32)cc1` [Example 407, (R)-4-((2-(3-amino-4,4-difluoropiperidin-1-yl)-4-chloro-1H-benzo[d]imidazol-1-yl)methyl)benzonitrile], for which the IC50 was 5.85 nM. Next, `N#Cc1ccc(Cn2c(N3CC[C@@H](F)[C@H](N)C3)nc3c(Cl)cccc32)cc1` [Example 408, 4-((2-((3R,4R)-3-amino-4-fluoropiperidin-1-yl)-4-chloro-1H-benzo[d]imidazol-1-yl)methyl)benzonitrile]: 0.924 nM. With `N#Cc1ccc(Cn2c(N3CC[C@H](F)[C@H](N)C3)nc3c(Cl)cccc32)cc1` [Example 409], the IC50 came out at 1.04 nM. Turning to `COc1cccc2c1nc(N1CCC(F)(F)[C@H](N)C1)n2Cc1ccc(C#N)cc1` [Example 410, (R)-4-((2-(3-amino-4,4-difluoropiperidin-1-yl)-4-methoxy-1H-benzo[d]imidazol-1-yl)methyl)benzonitrile], the IC50 is 10.5 nM. Take `COc1cccc2c1nc(N1CC[C@@H](F)[C@H](N)C1)n2Cc1ccc(C#N)cc1` [Example 411, 4-((2-((3R,4R)-3-amino-4-fluoropiperidin-1-yl)-4-methoxy-1H-benzo[d]imidazol-1-yl)methyl)benzonitrile]: the IC50 stood at 2.68 nM. The figure for `N#Cc1ccc(Cn2c(N3CC[C@@H](F)[C@H](N)C3)nc3cnccc32)cc1` [Example 412, 4-((2-((3R,4R)-3-amino-4-fluoropiperidin-1-yl)-1H-imidazo[4,5-c]pyridin-1-yl)methyl)benzonitrile] is 322 nM; for `N#Cc1ccc(Cn2c(N3CC[C@@H](F)[C@H](N)C3)nc3ccncc32)cc1` [Example 413, 4-((2-((3R,4R)-3-amino-4-fluoropiperidin-1-yl)-3H-imidazo[4,5-c]pyridin-3-yl)methyl)benzonitrile] it is 221 nM. With `N#Cc1ccc(Cn2c(N3CC[C@@H](F)[C@H](N)C3)nc3ncccc32)cc1` [Example 417, 4-((2-((3R,4R)-3-amino-4-fluoropiperidin-1-yl)-1H-imidazo[4,5-b]pyridin-1-yl)methyl)benzonitrile], the IC50 was determined as 12.7 nM.

`N#Cc1ccc(Cn2c(N3CCC[C@H](N)C3)nc3c(Cl)cccc32)cc1` [Example 418, (S)-4-((2-(3-aminopiperidin-1-yl)-4-chloro-1H-benzo[d]imidazol-1-yl)methyl)benzonitrile 2,2,2-trifluoroacetate]: the IC50 turned out to be 0.584 nM. Next, `N#Cc1ccc(Cn2c(N3CCC[C@H](N)C3)nc3cccnc32)cc1` [Example 419, (S)-4-((2-(3-aminopiperidin-1-yl)-3H-imidazo[4,5-b]pyridin-3-yl)methyl)benzonitrile hydrochloride]: 128 nM.

With `N#Cc1ccc(Cn2c(N3CC[C@@H](F)[C@H](N)C3)nc3ccc(Cl)cc32)cc1` [Example 420, 4-((2-((3R,4R)-3-amino-4-fluoropiperidin-1-yl)-6-chloro-1H-benzo[d]imidazol-1-yl)methyl)benzonitrile hydrochloride], the IC50 came to 0.6 nM. Regarding `N#Cc1ccc(Cn2c(N3CCC[C@H](N)C3)nc3ccc(Cl)cc32)cc1` [Example 421, (S)-4-((2-(3-aminopiperidin-1-yl)-6-chloro-1H-benzo[d]imidazol-1-yl)methyl)benzonitrile], the IC50 was 0.54 nM. For the compound `N#Cc1ccc(Cn2c(N3CCC[C@H](N)C3)nc3cc(Cl)ccc32)cc1` [Example 422, (S)-4-((2-(3-aminopiperidin-1-yl)-5-chloro-1H-benzo[d]imidazol-1-yl)methyl)benzonitrile], the IC50 worked out at 2.35 nM. As to `N#Cc1ccc2c(c1)CC[C@H]2n1c(N2CCC[C@H](N)C2)nc2ccccc21` [Example 423, (R)-1-(2-((S)-3-aminopiperidin-1-yl)-1H-benzo[d]imidazol-1-yl)-2,3-dihydro-1H-indene-5-carbonitrile], the IC50 was determined as 151 nM. For the compound `N#Cc1ccc2c(c1)CC[C@@H]2n1c(N2CCC[C@H](N)C2)nc2ccccc21` [Example 424, (S)-1-(2-((S)-3-aminopiperidin-1-yl)-1H-benzo[d]imidazol-1-yl)-2,3-dihydro-1H-indene-5-carbonitrile], the IC50 worked out at 0.707 nM.

For `COc1ccc(Cn2c(N3CC[C@@H](F)[C@H](N)C3)nc3ccccc32)nc1` [Example 425, (3R,4R)-4-fluoro-1-(1-((5-methoxypyridin-2-yl)methyl)-1H-benzo[d]imidazol-2-yl)piperidin-3-amine], the IC50 stood at 113 nM. The figure for `N#CC1CN(C(=O)Cn2c(N3CC[C@@H](F)[C@H](N)C3)nc3cc(F)c(F)cc32)C1` [Example 426, 1-(2-(2-((3R,4R)-3-amino-4-fluoropiperidin-1-yl)-5,6-difluoro-1H-benzo[d]imidazol-1-yl)acetyl)azetidine-3-carbonitrile] is 933 nM; for `CC(C)(C)OC1CN(C(=O)Cn2c(N3CC[C@@H](F)[C@H](N)C3)nc3cc(F)c(F)cc32)C1` [Example 427, 2-(2-((3R,4R)-3-amino-4-fluoropiperidin-1-yl)-5,6-difluoro-1H-benzo[d]imidazol-1-yl)-1-(3-(tert-butoxy)azetidin-1-yl)ethan-1-one] it is greater than 1750 nM.
